≈ marks a conversion by molar mass, not a printed value. Where two headings read alike, the source gives them in different places.
What was measured:
P. falciparum = test: In vitro antimalarial activity / SAR data, clone not stated; type: cell-based
Description: (§1) The analogs have been segregated arbitrarily here into those compounds in which the tetracyclic skeleton is intact (Table 2) and various ring-cleaved analogs (Table 3). The activities of the conventional malaria therapeutics chloroquine, mefloquine, and pyrimethamine is included for comparison.

P. falciparum D-6 clone = test: In vitro antimalarial activity, P. falciparum D-6 clone; type: cell-based; settings: D-6 clone; for IC50: Plasmodium falciparum
Description: as §1

P. falciparum W-2 clone = test: In vitro antimalarial activity, P. falciparum W-2 clone; type: cell-based; settings: W-2 clone; for IC50: Plasmodium falciparum
Description: as §1

[1] = Brossi et al.; cited from earlier work
[2] = Table 2, drug-resistant strains of P. falciparum, read-out: IC50 D-6 clone
[3] = Table 2, drawing 57 (artemisinin) = 100
[4] = Table 2, drug-resistant strains of P. falciparum, read-out: IC50 W-2 clone

With `CCC1(CC)OO[C@]23CCCC[C@H]2[C@@H](C)C(=O)O[C@@H]3O1` (relative stereo) [compound 52] the “activity change by additional alkyl groups in the vicinity of the peroxy group” value (P. falciparum; 24 versus 52) was “reduced activity substantially”.

With `C[C@H]1C(=O)O[C@@H]2OC(C)(C)OO[C@@]23CCCC[C@@H]13` (relative stereo) [compound 4582] the IC50 (P. falciparum D-6 clone; Table 3, tricyclic analogs, read-out: In vitro IC50 D-6 clone) was 22.2 ng/mL (≈ 0.0867 µM), the “Relative potency (D-6 clone)” value (P. falciparum D-6 clone; Table 3, tricyclic analogs) was 20 and the IC50 (P. falciparum W-2 clone; Table 3, tricyclic analogs, read-out: In vitro IC50 W-2 clone) was 38.1 ng/mL (≈ 0.149 µM). The “Relative potency (W-2 clone)” value (P. falciparum W-2 clone; Table 3, tricyclic analogs) was 6 and the “activity relative to 12” value (P. falciparum; of the activity of 12 (artemisinin), clone not stated) was “about 20%”.

In the case of `CCO[C@H]1O[C@@H]2O[C@@]3(C)CC[C@H]4[C@H](C)CC[C@@H]([C@H]1C)[C@@]24OO3` [arteether], the “potency relative to artemisinin (12)” value [1] is listed as “higher potency”.

For `CCC[C@H]1[C@@H](OCC)O[C@@H]2O[C@@]3(C)CC[C@H]4[C@H](C)CC[C@@H]1[C@@]24OO3` [compound 4600, (+)-Octahydro-3,6-dimethyl-10β-ethoxy-3,12-epoxy-9β-propyl-12H-pyrano[4.3-j]-1,2-benzodioxepine], the IC50 (P. falciparum D-6 clone; [2]) was 0.39 ng/mL (≈ 0.00115 µM), the “Relative potency (D-6 clone)” value (P. falciparum D-6 clone; [3]) was 120 and the IC50 (P. falciparum W-2 clone; [4]) was 0.63 ng/mL (≈ 0.00185 µM). The “Relative potency (W-2 clone)” value (P. falciparum W-2 clone; [3]) was 76.

For `CCc1nc(N)nc(N)c1-c1ccc(Cl)cc1` [pyrimethamine, reference compound], the IC50 (P. falciparum D-6 clone; [2]) was 0.35 ng/mL (≈ 0.00141 µM), the “Relative potency (D-6 clone)” value (P. falciparum D-6 clone; [3]) was 1269 and the IC50 (P. falciparum W-2 clone; [4]) was 121 ng/mL (≈ 0.486 µM). The “Relative potency (W-2 clone)” value (P. falciparum W-2 clone; [3]) was 2.

In the case of “(+)-Hexahydro-3,3,7,10α,11β-pentamethyl-4aH,6H-1,2,4-trioxino-[ 6.5-j][2] benzopyran-6-one [compound 4594]”, the “In vitro IC50 D-6 clone” value (P. falciparum D-6 clone; Table 3, tricyclic analogs) was 5.35 ng/mL, the “Relative potency (D-6 clone)” value (P. falciparum D-6 clone; Table 3, tricyclic analogs) was 23 and the “In vitro IC50 W-2 clone” value (P. falciparum W-2 clone; Table 3, tricyclic analogs) was 2.06 ng/mL. The “Relative potency (W-2 clone)” value (P. falciparum W-2 clone; Table 3, tricyclic analogs) was 24.

For “(-)-4ab,7a,7aa,10β-Hexahydro-3,3,7β,10a-tetramethyl-4aH,6H-trioxino[6.5-j][2]-benzopyran-6-one [compound 4591]”, the “In vitro IC50 D-6 clone” value (P. falciparum D-6 clone; Table 3, tricyclic analogs) was 9.65 ng/mL, the “Relative potency (D-6 clone)” value (P. falciparum D-6 clone; Table 3, tricyclic analogs) was 8 and the “In vitro IC50 W-2 clone” value (P. falciparum W-2 clone; Table 3, tricyclic analogs) was 9.71 ng/mL. For the same compound, the “Relative potency (W-2 clone)” value (P. falciparum W-2 clone; Table 3, tricyclic analogs) was 9.

Reference: US5216175A, “Antimalarial analogs of artemisinin” (SRI International, priority 1990, dated 1993)
